# According to patent US7118895B2, “Process for producing aglycon by using diglycosidase and flavor-improved food containing the aglycon and converting agent to be used in the process” (Amano Enzyme Inc., priority 2000, dated 2006):
# Key:
# [1] = tested on: Diglycosidase derived from P. multicolor; experiment: Reactivity toward various isoflavone glycosides (HPLC); format: biochemical, Penicillium multicolor; set-up: glucoside / aglycon: unit not given here; conditions: 55 °C, pH 4.0
# How it was run: (§1)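 Enzymes at 0.75 AU/mL in pH 4.0 acetate buffer were reacted at 55° C with individual isoflavone glycosides (substrate stock 2 mM in methanol) in 20 mM acetate pH 4.0. Aglycone release followed at 0, 1, 3 and 6 h: ethanol-quenched, ODS HPLC with UV 260 nm, quantified against calibration curves.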
# Crude diglycosidase = experiment: Examination of substrate concentration in the conversion into isoflavone aglycons by diglycosidase using soybean materials; format: biochemical, Penicillium multicolor IAM7153;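 as to Decomposition efficiency: ratio of each glycoside/aglycon within its isoflavone family: percent of the isoflavone family total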
# How it was run: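 Soybean materials (roasted soy flour, soymilk, defatted soybean, concentrated soy protein) at 2–30% (w/v) in 20 mM acetate pH 4.0 were reacted with crude diglycosidase at 55° C with shaking; enzyme solution added was 1.88 AU/mL. Samples taken at 0, 1, 3 and 6 h were ethanol-extracted and analyzed by HPLC.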
# [2] = tested on: β-Glucosidase derived from A. niger; experiment: Reactivity toward various isoflavone glycosides (HPLC); format: biochemical, Aspergillus niger; set-up: glucoside / aglycon: unit not given here; conditions: 55 °C, pH 4.0
# How it was run: as §1
structure (smiles),measurement,setting,value
O=c1c(-c2ccc(O)cc2)coc2cc(O[C@@H]3O[C@H](CO)[C@@H](O)[C@H](O)[C@H]3O)ccc12 [daidzin],aglycon,[1]; Reaction time 0 h,0.9
same,glucoside,[1]; Reaction time 0 h,99.1
same,aglycon,[1]; Reaction time 1 h,70.1
same,glucoside,[1]; Reaction time 1 h,29.9
same,aglycon,[1]; Reaction time 3 h,81.8
same,glucoside,[1]; Reaction time 3 h,18.2
same,aglycon,[1]; Reaction time 6 h,88.5
same,glucoside,[1]; Reaction time 6 h,11.5
same,Decomposition efficiency: ratio of each glycoside/aglycon within its isoflavone family,"Crude diglycosidase; roasted soy flour, substrate concentration 2%, heat treatment of enzyme no, reaction time 0 h",30.2%
same,Decomposition efficiency: ratio of each glycoside/aglycon within its isoflavone family,"Crude diglycosidase; roasted soy flour, substrate concentration 2%, heat treatment of enzyme no, reaction time 1 h",not detected
same,Decomposition efficiency: ratio of each glycoside/aglycon within its isoflavone family,"Crude diglycosidase; roasted soy flour, substrate concentration 2%, heat treatment of enzyme no, reaction time 3 h",not detected
same,Decomposition efficiency: ratio of each glycoside/aglycon within its isoflavone family,"Crude diglycosidase; roasted soy flour, substrate concentration 2%, heat treatment of enzyme no, reaction time 6 h",not detected
same,Decomposition efficiency: ratio of each glycoside/aglycon within its isoflavone family,"Crude diglycosidase; roasted soy flour, substrate concentration 2%, heat treatment of enzyme yes, reaction time 6 h",46.6%
same,Decomposition efficiency: ratio of each glycoside/aglycon within its isoflavone family,"Crude diglycosidase; roasted soy flour, substrate concentration 5%, heat treatment of enzyme no, reaction time 0 h",46.1%
same,Decomposition efficiency: ratio of each glycoside/aglycon within its isoflavone family,"Crude diglycosidase; roasted soy flour, substrate concentration 5%, heat treatment of enzyme no, reaction time 1 h",not detected
same,Decomposition efficiency: ratio of each glycoside/aglycon within its isoflavone family,"Crude diglycosidase; roasted soy flour, substrate concentration 5%, heat treatment of enzyme no, reaction time 3 h",not detected
same,Decomposition efficiency: ratio of each glycoside/aglycon within its isoflavone family,"Crude diglycosidase; roasted soy flour, substrate concentration 5%, heat treatment of enzyme no, reaction time 6 h",not detected
same,Decomposition efficiency: ratio of each glycoside/aglycon within its isoflavone family,"Crude diglycosidase; roasted soy flour, substrate concentration 5%, heat treatment of enzyme yes, reaction time 6 h",46.1%
same,Decomposition efficiency: ratio of each glycoside/aglycon within its isoflavone family,"Crude diglycosidase; roasted soy flour, substrate concentration 10%, heat treatment of enzyme no, reaction time 0 h",60.1%
same,Decomposition efficiency: ratio of each glycoside/aglycon within its isoflavone family,"Crude diglycosidase; roasted soy flour, substrate concentration 10%, heat treatment of enzyme no, reaction time 1 h",not detected
same,Decomposition efficiency: ratio of each glycoside/aglycon within its isoflavone family,"Crude diglycosidase; roasted soy flour, substrate concentration 10%, heat treatment of enzyme no, reaction time 3 h",not detected
same,Decomposition efficiency: ratio of each glycoside/aglycon within its isoflavone family,"Crude diglycosidase; roasted soy flour, substrate concentration 10%, heat treatment of enzyme no, reaction time 6 h",not detected
same,Decomposition efficiency: ratio of each glycoside/aglycon within its isoflavone family,"Crude diglycosidase; roasted soy flour, substrate concentration 10%, heat treatment of enzyme yes, reaction time 6 h",47.5%
same,Decomposition efficiency: ratio of each glycoside/aglycon within its isoflavone family,"Crude diglycosidase; roasted soy flour, substrate concentration 20%, heat treatment of enzyme no, reaction time 0 h",50.3%
same,Decomposition efficiency: ratio of each glycoside/aglycon within its isoflavone family,"Crude diglycosidase; roasted soy flour, substrate concentration 20%, heat treatment of enzyme no, reaction time 1 h",not detected
same,Decomposition efficiency: ratio of each glycoside/aglycon within its isoflavone family,"Crude diglycosidase; roasted soy flour, substrate concentration 20%, heat treatment of enzyme no, reaction time 3 h",not detected
same,Decomposition efficiency: ratio of each glycoside/aglycon within its isoflavone family,"Crude diglycosidase; roasted soy flour, substrate concentration 20%, heat treatment of enzyme no, reaction time 6 h",not detected
same,Decomposition efficiency: ratio of each glycoside/aglycon within its isoflavone family,"Crude diglycosidase; roasted soy flour, substrate concentration 20%, heat treatment of enzyme yes, reaction time 6 h",48.6%
same,Decomposition efficiency: ratio of each glycoside/aglycon within its isoflavone family,"Crude diglycosidase; roasted soy flour, substrate concentration 30%, heat treatment of enzyme no, reaction time 0 h",47.7%
same,Decomposition efficiency: ratio of each glycoside/aglycon within its isoflavone family,"Crude diglycosidase; roasted soy flour, substrate concentration 30%, heat treatment of enzyme no, reaction time 1 h",not detected
same,Decomposition efficiency: ratio of each glycoside/aglycon within its isoflavone family,"Crude diglycosidase; roasted soy flour, substrate concentration 30%, heat treatment of enzyme no, reaction time 3 h",not detected
same,Decomposition efficiency: ratio of each glycoside/aglycon within its isoflavone family,"Crude diglycosidase; roasted soy flour, substrate concentration 30%, heat treatment of enzyme no, reaction time 6 h",not detected
same,Decomposition efficiency: ratio of each glycoside/aglycon within its isoflavone family,"Crude diglycosidase; roasted soy flour, substrate concentration 30%, heat treatment of enzyme yes, reaction time 6 h",49.0%
same,Decomposition efficiency: ratio of each glycoside/aglycon within its isoflavone family,"Crude diglycosidase; soymilk, substrate concentration 2%, heat treatment of enzyme no, reaction time 0 h",53.5%
same,Decomposition efficiency: ratio of each glycoside/aglycon within its isoflavone family,"Crude diglycosidase; soymilk, substrate concentration 2%, heat treatment of enzyme no, reaction time 1 h",not detected
same,Decomposition efficiency: ratio of each glycoside/aglycon within its isoflavone family,"Crude diglycosidase; soymilk, substrate concentration 2%, heat treatment of enzyme no, reaction time 3 h",not detected
same,Decomposition efficiency: ratio of each glycoside/aglycon within its isoflavone family,"Crude diglycosidase; soymilk, substrate concentration 2%, heat treatment of enzyme no, reaction time 6 h",not detected
same,Decomposition efficiency: ratio of each glycoside/aglycon within its isoflavone family,"Crude diglycosidase; soymilk, substrate concentration 2%, heat treatment of enzyme yes, reaction time 6 h",39.8%
same,Decomposition efficiency: ratio of each glycoside/aglycon within its isoflavone family,"Crude diglycosidase; soymilk, substrate concentration 5%, heat treatment of enzyme no, reaction time 0 h",34.2%
same,Decomposition efficiency: ratio of each glycoside/aglycon within its isoflavone family,"Crude diglycosidase; soymilk, substrate concentration 5%, heat treatment of enzyme no, reaction time 1 h",not detected
same,Decomposition efficiency: ratio of each glycoside/aglycon within its isoflavone family,"Crude diglycosidase; soymilk, substrate concentration 5%, heat treatment of enzyme no, reaction time 3 h",not detected
same,Decomposition efficiency: ratio of each glycoside/aglycon within its isoflavone family,"Crude diglycosidase; soymilk, substrate concentration 5%, heat treatment of enzyme no, reaction time 6 h",not detected
same,Decomposition efficiency: ratio of each glycoside/aglycon within its isoflavone family,"Crude diglycosidase; soymilk, substrate concentration 5%, heat treatment of enzyme yes, reaction time 6 h",40.5%
same,Decomposition efficiency: ratio of each glycoside/aglycon within its isoflavone family,"Crude diglycosidase; soymilk, substrate concentration 10%, heat treatment of enzyme no, reaction time 0 h",34.6%
same,Decomposition efficiency: ratio of each glycoside/aglycon within its isoflavone family,"Crude diglycosidase; soymilk, substrate concentration 10%, heat treatment of enzyme no, reaction time 1 h",not detected
same,Decomposition efficiency: ratio of each glycoside/aglycon within its isoflavone family,"Crude diglycosidase; soymilk, substrate concentration 10%, heat treatment of enzyme no, reaction time 3 h",not detected
same,Decomposition efficiency: ratio of each glycoside/aglycon within its isoflavone family,"Crude diglycosidase; soymilk, substrate concentration 10%, heat treatment of enzyme no, reaction time 6 h",not detected
same,Decomposition efficiency: ratio of each glycoside/aglycon within its isoflavone family,"Crude diglycosidase; soymilk, substrate concentration 10%, heat treatment of enzyme yes, reaction time 6 h",39.4%
same,Decomposition efficiency: ratio of each glycoside/aglycon within its isoflavone family,"Crude diglycosidase; soymilk, substrate concentration 20%, heat treatment of enzyme no, reaction time 0 h",34.1%
same,Decomposition efficiency: ratio of each glycoside/aglycon within its isoflavone family,"Crude diglycosidase; soymilk, substrate concentration 20%, heat treatment of enzyme no, reaction time 1 h",not detected
same,Decomposition efficiency: ratio of each glycoside/aglycon within its isoflavone family,"Crude diglycosidase; soymilk, substrate concentration 20%, heat treatment of enzyme no, reaction time 3 h",not detected
same,Decomposition efficiency: ratio of each glycoside/aglycon within its isoflavone family,"Crude diglycosidase; soymilk, substrate concentration 20%, heat treatment of enzyme no, reaction time 6 h",not detected
same,Decomposition efficiency: ratio of each glycoside/aglycon within its isoflavone family,"Crude diglycosidase; soymilk, substrate concentration 20%, heat treatment of enzyme yes, reaction time 6 h",39.8%
same,Decomposition efficiency: ratio of each glycoside/aglycon within its isoflavone family,"Crude diglycosidase; soymilk, substrate concentration 30%, heat treatment of enzyme no, reaction time 0 h",34.9%
same,Decomposition efficiency: ratio of each glycoside/aglycon within its isoflavone family,"Crude diglycosidase; soymilk, substrate concentration 30%, heat treatment of enzyme no, reaction time 1 h",not detected
same,Decomposition efficiency: ratio of each glycoside/aglycon within its isoflavone family,"Crude diglycosidase; soymilk, substrate concentration 30%, heat treatment of enzyme no, reaction time 3 h",not detected
same,Decomposition efficiency: ratio of each glycoside/aglycon within its isoflavone family,"Crude diglycosidase; soymilk, substrate concentration 30%, heat treatment of enzyme no, reaction time 6 h",not detected
same,Decomposition efficiency: ratio of each glycoside/aglycon within its isoflavone family,"Crude diglycosidase; soymilk, substrate concentration 30%, heat treatment of enzyme yes, reaction time 6 h",40.0%
same,Decomposition efficiency of daidzin family in defatted soybean,"Crude diglycosidase; substrate concentration 2%, heat treatment of enzyme no, reaction time 0 h",42.3
same,Decomposition efficiency of daidzin family in defatted soybean,"Crude diglycosidase; substrate concentration 2%, heat treatment of enzyme no, reaction time 1 h",not detected
same,Decomposition efficiency of daidzin family in defatted soybean,"Crude diglycosidase; substrate concentration 2%, heat treatment of enzyme no, reaction time 3 h",not detected
same,Decomposition efficiency of daidzin family in defatted soybean,"Crude diglycosidase; substrate concentration 2%, heat treatment of enzyme no, reaction time 6 h",not detected
same,Decomposition efficiency of daidzin family in defatted soybean,"Crude diglycosidase; substrate concentration 2%, heat treatment of enzyme yes, reaction time 6 h",43.7
same,Decomposition efficiency of daidzin family in defatted soybean,"Crude diglycosidase; substrate concentration 5%, heat treatment of enzyme no, reaction time 0 h",44.0
same,Decomposition efficiency of daidzin family in defatted soybean,"Crude diglycosidase; substrate concentration 5%, heat treatment of enzyme no, reaction time 1 h",not detected
same,Decomposition efficiency of daidzin family in defatted soybean,"Crude diglycosidase; substrate concentration 5%, heat treatment of enzyme no, reaction time 3 h",not detected
same,Decomposition efficiency of daidzin family in defatted soybean,"Crude diglycosidase; substrate concentration 5%, heat treatment of enzyme no, reaction time 6 h",not detected
same,Decomposition efficiency of daidzin family in defatted soybean,"Crude diglycosidase; substrate concentration 5%, heat treatment of enzyme yes, reaction time 6 h",45.8
same,Decomposition efficiency of daidzin family in defatted soybean,"Crude diglycosidase; substrate concentration 10%, heat treatment of enzyme no, reaction time 0 h",45.6
same,Decomposition efficiency of daidzin family in defatted soybean,"Crude diglycosidase; substrate concentration 10%, heat treatment of enzyme no, reaction time 1 h",not detected
same,Decomposition efficiency of daidzin family in defatted soybean,"Crude diglycosidase; substrate concentration 10%, heat treatment of enzyme no, reaction time 3 h",not detected
same,Decomposition efficiency of daidzin family in defatted soybean,"Crude diglycosidase; substrate concentration 10%, heat treatment of enzyme no, reaction time 6 h",not detected
same,Decomposition efficiency of daidzin family in defatted soybean,"Crude diglycosidase; substrate concentration 10%, heat treatment of enzyme yes, reaction time 6 h",47.5
same,reactivity of β-glucosidase derived from Aspergillus niger (in words),[2],act well
same,aglycon,[2]; Reaction time 0 h,0
same,glucoside,[2]; Reaction time 0 h,100
same,aglycon,[2]; Reaction time 1 h,100
same,glucoside,[2]; Reaction time 1 h,0
same,aglycon,[2]; Reaction time 3 h,100
same,glucoside,[2]; Reaction time 3 h,0
same,aglycon,[2]; Reaction time 6 h,100
same,glucoside,[2]; Reaction time 6 h,0
